US10793563B2, “GCN2 inhibitors and uses thereof” (Merck Patent GmbH, priority 2018, dated 2020)

Assays:
GCN2 kinase = GCN2 kinase (Homo sapiens (Human), UniProt Q9P2K8); assay: GCN2 Enzyme Inhibition Assay (Transcreener ADP2 fluorescence polarization); type: biochemical; settings: 280 μM ATP, 200 μM (RS)7 peptide, 4 nM GCN2, 25° C.
In short: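 Transcreener ADP2 fluorescence polarization detection of ADP from 4 nM GCN2 with (RS)7 substrate in 25 mM Tris-HCl pH 7.5, 50 mM NaCl, 10 mM MgCl2, 1 mM DTT. Compound pre-incubated with enzyme 10 min at 25 °C; reaction started by ATP, run 1 h at 25 °C. IC50 and Ki(app) by tight-binding fit.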

[1] = biological target: intracellular GCN2 (phosphorylation of the GCN2 substrate eIF2α) (Homo sapiens (Human), UniProt Q9P2K8); assay: GCN2 Cellular Inhibition Assay (AlphaScreen SureFire P-eIF2α Ser51, borrelidin-treated U2OS cells); type: cell-based; settings: 10 μM borrelidin, 1 h, phosphorylated eIF2α Ser51, read-out: GCN2 Biomarker (IC50)
In short: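 U2OS cells adhered overnight, then given compound (top 40 μM, 4-fold serial dilutions) plus 10 μM borrelidin for 1 h at 37 °C. Lysates assayed for eIF2α phospho-Ser51 by AlphaScreen SureFire; % inhibition versus borrelidin-only wells.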

[2] = system: primary human pan T-cells; assay: Human IL-2 Assay for GCN2 Inhibition (IL-2 secretion from T cells in low amino acid condition); type: cell-based; settings: Homo sapiens, T-cell, 96 h, IL-2 secretion from human T cells stimulated with anti-CD3/CD28 in low amino acid condition, ELISA, read-out: IL2/T-cell EC50
Description: Tumor microenvironment is profoundly immuno-suppressive. This may be attributed to the depletion of amino acids (like arginine and tryptophan) which triggers the activation of GCN2 in immune cells, including T cell and myeloid cells. In T cells, activation of GCN2 leads to reduce effector functions of CD8 T cells and induction and/or maintenance of immuno-suppressive T-regs. Inhibition of that immuno-suppressive response by GCN2 inhibitors enables an anti-cancer immune response by activating effector T-cells. Herein we describe an in-vitro system we established using human T-cells stimulated in low amino acid condition in order to engage the GCN2 biology. The method described involves the modulation of IL-2 levels secreted by human T cells in responses to the GCN2 inhibitors disclosed herein.
Amino acid-free RPMI was reconstituted with all but one of the amino acids found in standard RMPI (e.g. Arginine, Tryptophan), 10% charcoal-stripped fetal bovine serum, 100 Units/mL penicillin and 0.1 mg/mL streptomycin. Primary human pan T-cells were isolated using Pan T Cell Isolation Kit, human (MACS Miltenyi biotech Cat # Order no. 130-096-535) from apheresis cones and 5×104 pan T-cells per well. The purified T cells are seeded in Nunc™ 96-Well Polystyrene Round Bottom Microwell Plates (the cells are rested in No TRP media in a 15 ml falcon tube in the incubator for 30-45 minutes while titrations for tryptophan and the GCN2 inhibitor compound are made) A plate matrix was developed to titrate both a GCN2 inhibitor and the amino acid of interest ranging from “No Amino Acid” condition, up to the concentration found in the regular RPMI media (20 μM for TRP and 950 μM for Arginine). The cells were incubated for 30 min at 37° C. with the GCN2 inhibitor and then stimulated with 5×104 anti-CD3/CD28 Dynabeads® per well. After 96 hours of incubation the IL-2 level in the supernatant were measured using ELISA (R&D systems Cat # DY202 (Human IL-2 DuoSet ELISA). Data were plotted in GraphPad Prism software and EC50 is calculated.

Sequence of GCN2 kinase (Q9P2K8 whole entry): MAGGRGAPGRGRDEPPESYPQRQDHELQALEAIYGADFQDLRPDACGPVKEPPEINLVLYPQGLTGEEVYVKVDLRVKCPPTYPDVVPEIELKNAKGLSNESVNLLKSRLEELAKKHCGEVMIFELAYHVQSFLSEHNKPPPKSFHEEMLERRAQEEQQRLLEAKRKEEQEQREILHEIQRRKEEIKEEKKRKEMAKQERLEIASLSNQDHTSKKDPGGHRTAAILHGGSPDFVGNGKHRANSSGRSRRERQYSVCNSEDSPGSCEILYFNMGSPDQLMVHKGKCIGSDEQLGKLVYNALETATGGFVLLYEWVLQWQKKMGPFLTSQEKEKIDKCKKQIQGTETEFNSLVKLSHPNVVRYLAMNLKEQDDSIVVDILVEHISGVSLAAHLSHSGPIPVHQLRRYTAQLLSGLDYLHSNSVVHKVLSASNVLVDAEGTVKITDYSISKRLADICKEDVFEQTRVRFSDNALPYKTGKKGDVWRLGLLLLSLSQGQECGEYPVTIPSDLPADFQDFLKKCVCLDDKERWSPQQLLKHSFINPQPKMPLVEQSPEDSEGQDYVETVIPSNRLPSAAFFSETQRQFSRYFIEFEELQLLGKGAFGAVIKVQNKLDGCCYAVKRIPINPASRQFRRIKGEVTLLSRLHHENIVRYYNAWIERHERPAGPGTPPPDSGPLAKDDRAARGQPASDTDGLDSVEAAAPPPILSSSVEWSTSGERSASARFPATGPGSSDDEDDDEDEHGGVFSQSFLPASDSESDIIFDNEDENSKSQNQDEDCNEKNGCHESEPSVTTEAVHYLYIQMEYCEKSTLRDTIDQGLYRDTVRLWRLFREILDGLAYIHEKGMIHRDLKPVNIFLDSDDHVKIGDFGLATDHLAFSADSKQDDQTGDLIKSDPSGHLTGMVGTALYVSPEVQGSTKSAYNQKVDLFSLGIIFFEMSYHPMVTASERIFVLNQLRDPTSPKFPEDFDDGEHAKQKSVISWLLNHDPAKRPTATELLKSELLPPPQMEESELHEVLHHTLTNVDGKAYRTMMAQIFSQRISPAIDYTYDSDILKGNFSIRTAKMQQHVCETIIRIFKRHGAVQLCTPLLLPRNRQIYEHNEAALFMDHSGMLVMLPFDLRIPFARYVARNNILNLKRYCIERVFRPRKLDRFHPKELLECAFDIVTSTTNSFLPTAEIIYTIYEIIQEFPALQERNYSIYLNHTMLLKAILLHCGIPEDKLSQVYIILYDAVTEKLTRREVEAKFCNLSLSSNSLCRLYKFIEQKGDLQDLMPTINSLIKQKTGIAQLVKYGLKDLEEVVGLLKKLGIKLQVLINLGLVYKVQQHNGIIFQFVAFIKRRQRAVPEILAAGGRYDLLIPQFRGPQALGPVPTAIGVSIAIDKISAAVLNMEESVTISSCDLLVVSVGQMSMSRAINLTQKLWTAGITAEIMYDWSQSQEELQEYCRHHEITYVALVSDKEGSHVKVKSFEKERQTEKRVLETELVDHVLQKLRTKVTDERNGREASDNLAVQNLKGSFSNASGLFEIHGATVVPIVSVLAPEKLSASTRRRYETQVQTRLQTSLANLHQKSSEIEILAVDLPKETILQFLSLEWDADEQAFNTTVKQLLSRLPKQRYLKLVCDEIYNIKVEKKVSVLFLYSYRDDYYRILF
Sequence of intracellular GCN2 (phosphorylation of the GCN2 substrate eIF2α) (Q9P2K8 whole entry): as above

| IC50 (GCN2 kinase) | IC50 [1] | EC50 [2] | Structure (SMILES) |
| --- | --- | --- | --- |
| 10 to 100 nM | < 500 nM |  | CC1(C)C[C@H]1CN1CCN(c2ccnc(-c3cnc4ccc(C(F)(F)F)cn34)n2)C[C@@H]1c1cn[nH]c1 [I-528, 3-(4-((S)-4-(((R)-2,2-dimethylcyclopropyl)methyl)-3-(1H-pyrazol-4-yl)piperazin-1-yl)pyrimidin-2-yl)-6-(trifluoromethyl)imidazo[1,2-a]pyridine] |
| < 10 nM | < 500 nM |  | CC1(C)C[C@@H]1CN1CCN(c2ccnc(-c3cnc4ccc(C(F)(F)F)cn34)n2)C[C@H]1c1cn[nH]c1 [I-529, 3-(4-((R)-4-(((S)-2,2-dimethylcyclopropyl)methyl)-3-(1H-pyrazol-4-yl)piperazin-1-yl)pyrimidin-2-yl)-6-(trifluoromethyl)imidazo[1,2-a]pyridine] |
| 10 to 100 nM | 500 to 5000 nM |  | CC1C(CNS(C)(=O)=O)N(C2COC2)CCN1c1ccnc(-c2cnc3ccc(C(F)F)cn23)n1 (stereo not shown) [I-530, N-((4-(2-(6-(difluoromethyl)imidazo[1,2-a]pyridin-3-yl)pyrimidin-4-yl)-3-methyl-1-(oxetan-3-yl)piperazin-2-yl)methyl)methanesulfonamide] |
| 10 to 100 nM | < 500 nM |  | CS(=O)(=O)NC1CC(C(F)(F)F)CN(c2ccnc(-c3cnc4ccc(C(F)F)cn34)n2)C1 (stereo not shown) [I-531, N-(1-(2-(6-(difluoromethyl)imidazo[1,2-a]pyridin-3-yl)pyrimidin-4-yl)-5-(trifluoromethyl)piperidin-3-yl)methanesulfonamide] |
| 10 to 100 nM | 500 to 5000 nM |  | FC(F)(F)c1ccc2ncc(-c3nccc(N4CCN[C@H](c5cn[nH]c5)C4)n3)n2c1 [I-532, (R)-3-(4-(3-(1H-pyrazol-4-yl)piperazin-1-yl)pyrimidin-2-yl)-6-(trifluoromethyl)imidazo[1,2-a]pyridine] |
| < 10 nM | < 500 nM |  | FC(F)(F)c1ccc2ncc(-c3nccc(N4CCN[C@@H](c5cn[nH]c5)C4)n3)n2c1 [I-533, (S)-3-(4-(3-(1H-pyrazol-4-yl)piperazin-1-yl)pyrimidin-2-yl)-6-(trifluoromethyl)imidazo[1,2-a]pyridine] |
| 100 to 1000 nM | 500 to 5000 nM |  | C[C@@H]1[C@@H](c2cn[nH]c2)NCCN1c1ccnc(-c2cnc3ccc(C(F)(F)F)cn23)n1 [I-536, 3-(4-((2R,3R)-2-methyl-3-(1H-pyrazol-4-yl)piperazin-1-yl)pyrimidin-2-yl)-6-(trifluoromethyl)imidazo[1,2-a]pyridine] |
| < 10 nM | < 500 nM |  | C[C@@H]1[C@H](c2cn[nH]c2)NCCN1c1ccnc(-c2cnc3ccc(C(F)(F)F)cn23)n1 [I-537, 4-[(2R,3 S)-2-methyl-3-(1H-pyrazol-4-yl)piperazin-1-yl]-2-[6-(trifluoromethyl)imidazo[1,2-a]pyridin-3-yl]pyrimidine] |
| 10 to 100 nM | 500 to 5000 nM |  | Cc1[nH]ncc1[C@@H]1CN(c2ccnc(-c3cnc4cc(F)c(Cl)cn34)n2)C[C@@H](C)O1 [I-538, (2R,6R)-4-(2-(6-chloro-7-fluoroimidazo[1,2-a]pyridin-3-yl)pyrimidin-4-yl)-2-methyl-6-(5-methyl-1H-pyrazol-4-yl)morpholine] |
| < 10 nM | < 500 nM |  | Cc1[nH]ncc1[C@H]1CN(c2ccnc(-c3cnc4cc(F)c(Cl)cn34)n2)C[C@@H](C)O1 [I-540, (2R,6S)-4-(2-(6-chloro-7-fluoroimidazo[1,2-a]pyridin-3-yl)pyrimidin-4-yl)-2-methyl-6-(5-methyl-1H-pyrazol-4-yl)morpholine] |
| 100 to 1000 nM | 500 to 5000 nM |  | C[C@H]1[C@@H](CNS(C)(=O)=O)N(C2CC2)CCN1c1nccc(-c2cnc3ccc(C(F)(F)F)cn23)n1 [I-541, N-(((2R,3 S)-1-cyclopropyl-3-methyl-4-(4-(6-(trifluoromethyl)imidazo[1,2-a]pyridin-3-yl)pyrimidin-2-yl)piperazin-2-yl)methyl)methanesulfonamide] |
| < 10 nM | < 500 nM |  | C[C@@H]1[C@H](CNS(C)(=O)=O)N(C2CC2)CCN1c1nccc(-c2cnc3ccc(C(F)(F)F)cn23)n1 [I-543, N-{(2S,3R)-1-Cyclopropyl-3-methyl-4-[4-(6-trifluoromethyl-imidazo[1,2-a]pyridin-3-yl)-pyrimidin-2-yl]-piperazin-2-ylmethyl}-methanesulfonamide] |
| < 10 nM | < 500 nM |  | FC(F)(F)c1ccc2ncc(-c3ccnc(N4CCN(C[C@@H]5CCCOC5)[C@H](c5cn[nH]c5)C4)n3)n2c1 [I-544, 3-(2-((R)-3-(1H-pyrazol-4-yl)-4-(((S)-tetrahydro-2H-pyran-3-yl)methyl)piperazin-1-yl)pyrimidin-4-yl)-6-(trifluoromethyl)imidazo[1,2-a]pyridine] |
| < 10 nM | < 500 nM |  | FC(F)(F)c1ccc2ncc(-c3ccnc(N4CCN(C[C@H]5CCCOC5)[C@H](c5cn[nH]c5)C4)n3)n2c1 [I-545, 3-(2-((R)-3-(1H-pyrazol-4-yl)-4-(((R)-tetrahydro-2H-pyran-3-yl)methyl)piperazin-1-yl)pyrimidin-4-yl)-6-(trifluoromethyl)imidazo[1,2-a]pyridine] |
| < 10 nM | < 500 nM |  | FC(F)(F)c1ccc2ncc(-c3ccnc(N4CCN(C[C@@H]5CCCOC5)[C@@H](c5cn[nH]c5)C4)n3)n2c1 [I-546, 3-(2-((S)-3-(1H-pyrazol-4-yl)-4-(((S)-tetrahydro-2H-pyran-3-yl)methyl)piperazin-1-yl)pyrimidin-4-yl)-6-(trifluoromethyl)imidazo[1,2-a]pyridine] |
|  |  | 100 to 500 nM | C[C@@H]1[C@H](C(N)=O)N(C2CC2)CCN1c1ccnc(-c2cnc3ccc(Cl)cn23)n1 [I-547, (2R,3R)-4-(2-(6-chloroimidazo[1,2-a]pyridin-3-yl)pyrimidin-4-yl)-1-cyclopropyl-3-methylpiperazine-2-carboxamide] |
|  |  | 100 to 500 nM | NC(=O)[C@H]1CCCN(c2ccnc(-c3cnc4cc(F)c(Cl)cn34)n2)C1 [I-558, (S)-1-(2-(6-chloro-7-fluoroimidazo[1,2-a]pyridin-3-yl)pyrimidin-4-yl)piperidine-3-carboxamide] |
|  |  | < 100 nM | C[C@@H]1C[C@@H](c2cn[nH]c2)CN(c2ccnc(-c3cnc4ccc(Cl)cn34)n2)C1 [I-559, 6-chloro-3-(4-((3R,5S)-3-methyl-5-(1H-pyrazol-4-yl)piperidin-1-yl)pyrimidin-2-yl)imidazo[1,2-a]pyridine] |
|  |  | 100 to 500 nM | Cc1[nH]ncc1[C@H]1CN(c2ccnc(-c3cnc4ccc(Cl)cn34)n2)C[C@@H](C)O1 [I-561, (2R,6S)-4-(2-(6-chloroimidazo[1,2-a]pyridin-3-yl)pyrimidin-4-yl)-2-methyl-6-(5-methyl-1H-pyrazol-4-yl)morpholine] |
|  |  | 100 to 500 nM | C[C@H]1CN(c2ccnc(-c3cnc4ccc(C(F)(F)F)cn34)n2)C[C@@H](C(N)=O)O1 [I-562, (2S,6S)-6-methyl-4-(2-(6-(trifluoromethyl)imidazo[1,2-a]pyridin-3-yl)pyrimidin-4-yl)morpholine-2-carboxamide] |
|  |  | 100 to 500 nM | C[C@H]1CN(c2ccnc(-c3cnc4ccc(Cl)cn34)n2)[C@@H](C)[C@@H](c2cn[nH]c2)N1 [I-563, 6-chloro-3-(4-((2S,3R,5S)-2,5-dimethyl-3-(1H-pyrazol-4-yl)piperazin-1-yl)pyrimidin-2-yl)imidazo[1,2-a]pyridine] |
|  |  | < 100 nM | C[C@@H]1CN(c2ccnc(-c3cnc4ccc(C(F)(F)F)cn34)n2)C[C@H](c2cn[nH]c2)O1 [I-564, (2R,6S)-2-methyl-6-(1H-pyrazol-4-yl)-4-(2-(6-(trifluoromethyl)imidazo[1,2-a]pyridin-3-yl)pyrimidin-4-yl)morpholine] |
